Measured values published in the supplement of paper PMC10307832.

How the values were obtained:
Test in all cases: relative viability (nuclei count vs DMSO), 5 days (fraction); higher = more cells survive
[1] = compound: C1=CC=C2C(=C1)N=C(S2)C(C#N)C3=NC(=NC=C3)NCCC4=CN=CC=C4 + Cc1nc(NC(=O)N2CCC[C@H]2C(N)=O)sc1-c1ccnc(C(C)(C)C(F)(F)F)c1 [Alpelisib] (partner 2 µM)
In short: (§1)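 Lung cancer cell lines in 1536-well plates were dosed by pin tool the day after seeding, either with one drug alone or with a fixed anchor-drug dose plus five library-drug doses (not always all listed) in √10 steps. After 5 days, cells were fixed and their nuclei stained in one step (final 0.05% Triton X-100, 1% formaldehyde, 1 ug/ml Hoechst), then counted on 4× images. Relative viability is the nuclei count in treated wells divided by that in vehicle wells. Values are medians of duplicate plates.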

CUDC-101 + Lapatinib = compound: C#Cc1cccc(Nc2ncnc3cc(OC)c(OCCCCCCC(=O)NO)cc23)c1 [CUDC-101] + CS(=O)(=O)CCNCc1ccc(-c2ccc3ncnc(Nc4ccc(OCc5cccc(F)c5)c(Cl)c4)c3c2)o1 [Lapatinib] (partner 2 µM)
In short: as §1

NVP-TAE684 + Decitabine = compound: COc1cc(N2CCC(N3CCN(C)CC3)CC2)ccc1Nc1ncc(Cl)c(Nc2ccccc2S(=O)(=O)C(C)C)n1 [NVP-TAE684] + Nc1ncn([C@H]2C[C@H](O)[C@@H](CO)O2)c(=O)n1 [Decitabine] (partner 2 µM)
In short: as §1

[2] = compound: C1=CC=C2C(=C1)N=C(S2)C(C#N)C3=NC(=NC=C3)NCCC4=CN=CC=C4 + Nc1ncn([C@H]2C[C@H](O)[C@@H](CO)O2)c(=O)n1 [Decitabine] (partner 2 µM)
In short: as §1

Row | Cell Line | relative viability ([1]; first compound 0.005 µM) | relative viability ([1]; first compound 0.01581 µM) | relative viability ([1]; first compound 0.05 µM) | relative viability ([1]; first compound 0.1581 µM) | relative viability ([1]; first compound 0.5 µM) | relative viability (CUDC-101 + Lapatinib; first compound 0.01 µM) | relative viability (CUDC-101 + Lapatinib; first compound 0.03162 µM) | relative viability (CUDC-101 + Lapatinib; first compound 0.1 µM) | relative viability (CUDC-101 + Lapatinib; first compound 0.3162 µM) | relative viability (CUDC-101 + Lapatinib; first compound 1 µM) | relative viability (NVP-TAE684 + Decitabine; first compound 0.2 µM) | relative viability (NVP-TAE684 + Decitabine; first compound 0.6325 µM) | relative viability (NVP-TAE684 + Decitabine; first compound 2 µM) | relative viability ([2]; first compound 0.005 µM) | relative viability ([2]; first compound 0.01581 µM) | relative viability ([2]; first compound 0.05 µM) | relative viability ([2]; first compound 0.1581 µM) | relative viability ([2]; first compound 0.5 µM)
1 | LOU-NH91 | 0.707 | 0.752 | 0.62 | 0.723 | 0.698 | 0.843 | 0.772 | 0.764 | 0.825 | 0.641 | 0.801 | 0.782 | 0.645 | 0.85 | 0.822 | 0.765 | 0.818 | 0.8
2 | NCI-H2009 | 1.13 | 1.22 | 1.18 | 1.16 | 1.12 | 0.924 | 1 | 1.07 | 0.925 | 0.87 | 0.372 | 0.34 | 0.345 | 0.37 | 0.386 | 0.379 | 0.427 | 0.397
3 | NCI-H647 |  | 1.18 | 0.876 | 1.41 | 0.599 | 1.25 | 1.1 | 1.02 | 0.863 | 0.271 | 0.388 | 0.386 | 0.261 | 0.356 | 0.442 | 0.33 | 0.353 | 0.284
4 | NCI-H1666 | 0.915 | 0.971 | 0.876 | 1.11 | 0.892 | 0.64 | 0.692 | 0.583 | 0.664 | 0.38 | 0.71 | 0.732 | 0.597 | 0.72 | 0.696 | 0.8 | 0.738 | 0.798
5 | A-427 | 1.08 | 1.01 | 0.996 | 1.09 | 1.16 | 0.933 | 1.04 | 1 | 0.914 | 1.01 | 0.58 | 0.53 | 0.44 | 0.599 | 0.495 | 0.568 | 0.555 | 0.574
6 | NCI-H2170 |  | 0.801 | 0.845 | 0.838 | 0.723 | 0.27 | 0.266 | 0.297 | 0.227 | 0.232 | 0.472 | 0.477 | 0.418 | 0.419 | 0.46 | 0.425 | 0.468 | 0.488
7 | NCI-H1395 | 1.14 |  | 0.939 | 1.04 | 1.21 | 1.04 | 1.13 | 1.05 | 0.862 | 0.661 | 0.682 | 0.712 | 0.616 | 0.721 |  | 0.732 | 0.769 | 0.742
8 | NCI-H650 | 0.859 | 1.22 | 1.04 | 1.18 | 1.2 | 0.947 | 1.1 | 0.899 | 0.582 | 0.405 | 0.306 | 0.329 | 0.276 | 0.316 | 0.356 | 0.319 | 0.338 | 0.325
9 | NCI-H1437 | 0.797 | 1.11 | 0.962 | 1.09 | 0.695 | 0.884 | 0.792 | 0.773 | 0.796 | 0.355 | 0.596 | 0.548 | 0.474 | 0.484 | 0.6 | 0.508 | 0.602 | 0.548
